Test results from ChEMBL document CHEMBL6121052, “Design of ROS-Triggered Sesquiterpene Lactone SC Prodrugs as TrxR1 Covalent Inhibitors for the Treatment of Non-Small Cell Lung Cancer” (J Med Chem, 2025).
Activity calls are given as the source filed them. The calls are words filed in the database; no cut-off is given here.

Columns and labels:
A549 = experiment: Cytotoxicity against human A549 cells assessed as cell viability incubated for 48 hrs by MTT assay; type: functional, cell-based; settings: A549, 48 h
NCI-H460 = experiment: Cytotoxicity against human NCI-H460 cells assessed as cell viability incubated for 48 hrs by MTT assay; type: functional, cell-based; settings: for IC50: NCI-H460, 48 h

`C/C1=C\[C@@H](OC(=O)/C=C/c2ccccc2)[C@H]2[C@H](CC3=C[C@H](C1)OC3=O)OC(=O)[C@@H]2CSc1ccc(Cl)cc1` showed an IC50 (A549) of 7.5 µM and an IC50 (NCI-H460) of over 25 µM.
Compound `C/C1=C\[C@@H](OC(=O)C2CC2)[C@H]2[C@H](CC3=C[C@H](C1)OC3=O)OC(=O)[C@@H]2CSC(=S)NC(C)C` has an IC50 (A549) of 1.94 µM and an IC50 (NCI-H460) of over 25 µM.
`C/C1=C\[C@@H](OC(=O)C2CC2)[C@H]2[C@H](CC3=C[C@H](C1)OC3=O)OC(=O)[C@@H]2CSCCCCCCCCSC[C@H]1C(=O)O[C@H]2CC3=C[C@H](C/C(C)=C/[C@@H](OC(=O)C4CC4)[C@@H]21)OC3=O` was tested, and the IC50 (A549) was over 25 µM and the IC50 (NCI-H460) was over 25 µM.
`C/C1=C\[C@@H](OC(=O)c2ccccc2)[C@H]2[C@H](CC3=C[C@H](C1)OC3=O)OC(=O)[C@@H]2CSCCCCCCCCCCSC[C@H]1C(=O)O[C@H]2CC3=C[C@H](C/C(C)=C/[C@@H](OC(=O)c4ccccc4)[C@@H]21)OC3=O` showed an IC50 (A549) of over 25 µM and an IC50 (NCI-H460) of over 25 µM.
`C/C1=C\[C@@H](OC(=O)C2CC2)[C@H]2[C@H](CC3=C[C@H](C1)OC3=O)OC(=O)[C@@H]2CSC(=S)NCc1ccc(F)cc1` was tested, and the IC50 (A549) was 1.79 µM and the IC50 (NCI-H460) was 15.2 µM.
In the case of `C[C@@]12C[C@H]3C=C(C[C@@H]4OC(=O)[C@H](CSc5ccc(F)cc5)[C@H]4[C@H](OC(=O)C4CC4)[C@H]1O2)C(=O)O3`, the Activity (NCI-H460) is reported as “inactive”.
Compound `C#CCNC(=O)O[C@@H]1/C=C(\C)C[C@H]2C=C(C[C@@H]3OC(=O)[C@H](CSc4ccc(F)cc4)[C@H]31)C(=O)O2` has an IC50 (A549) of 22.1 µM.
Compound `C/C1=C\[C@@H](OC(=O)C2CC2)[C@H]2[C@H](CC3=C[C@H](C1)OC3=O)OC(=O)[C@@H]2CSCCCCCCCCCCSC[C@H]1C(=O)O[C@H]2CC3=C[C@H](C/C(C)=C/[C@@H](OC(=O)C4CC4)[C@@H]21)OC3=O` has an IC50 (A549) of over 25 µM and an IC50 (NCI-H460) of over 25 µM.
Work on `C/C1=C\[C@@H](OC(=O)C2CC2)[C@H]2[C@H](CC3=C[C@H](C1)OC3=O)OC(=O)[C@@H]2CSc1nc2ccccc2s1` yielded an IC50 (A549) of 17.2 µM and an IC50 (NCI-H460) of over 25 µM.
`C/C1=C\[C@@H](OC(=O)c2ccccc2)[C@H]2[C@H](CC3=C[C@H](C1)OC3=O)OC(=O)[C@@H]2CSCc1ccc(Cl)cc1` showed an IC50 (A549) of over 25 µM and an IC50 (NCI-H460) of over 25 µM.
Work on `CCCCCSC[C@H]1C(=O)O[C@H]2CC3=C[C@H](C/C(C)=C/[C@@H](O)[C@@H]21)OC3=O` yielded an IC50 (A549) of over 25 µM and an IC50 (NCI-H460) of over 25 µM.
`C/C1=C\[C@@H](OC(=O)/C=C/c2ccccc2)[C@H]2[C@H](CC3=C[C@H](C1)OC3=O)OC(=O)[C@@H]2CSCCCCCCCCSC[C@H]1C(=O)O[C@H]2CC3=C[C@H](C/C(C)=C/[C@@H](OC(=O)/C=C/c4ccccc4)[C@@H]21)OC3=O` showed an IC50 (A549) of over 25 µM and an IC50 (NCI-H460) of over 25 µM.
`C/C1=C\[C@@H](OC(=O)C2CC2)[C@H]2[C@H](CC3=C[C@H](C1)OC3=O)OC(=O)[C@@H]2CSCc1ccc(Cl)cc1` was tested, and the IC50 (A549) was over 25 µM and the IC50 (NCI-H460) was over 25 µM.
`C/C1=C\[C@@H](O)[C@H]2[C@H](CC3=C[C@H](C1)OC3=O)OC(=O)[C@@H]2CSCCCCCCCCCCSC[C@H]1C(=O)O[C@H]2CC3=C[C@H](C/C(C)=C/[C@@H](O)[C@@H]21)OC3=O` showed an IC50 (A549) of over 25 µM and an IC50 (NCI-H460) of over 25 µM.
Work on `C/C1=C\[C@@H](OC(=O)OCc2cccs2)[C@H]2[C@H](CC3=C[C@H](C1)OC3=O)OC(=O)[C@@H]2CSC(=S)N(C)C` yielded an IC50 (A549) of 2.56 µM.
Work on `C/C1=C\[C@@H](O)[C@H]2[C@H](CC3=C[C@H](C1)OC3=O)OC(=O)[C@@H]2CSCc1ccc(Cl)cc1` yielded an IC50 (A549) of over 25 µM and an IC50 (NCI-H460) of over 25 µM.
For `C/C1=C\[C@@H](O)[C@H]2[C@H](CC3=C[C@H](C1)OC3=O)OC(=O)[C@@H]2CSCCCCCCCCSC[C@H]1C(=O)O[C@H]2CC3=C[C@H](C/C(C)=C/[C@@H](O)[C@@H]21)OC3=O`, the IC50 (A549) was over 25 µM and the IC50 (NCI-H460) was over 25 µM.
`C/C1=C\[C@@H](OC(=O)NCc2cccs2)[C@H]2[C@H](CC3=C[C@H](C1)OC3=O)OC(=O)[C@@H]2CSc1ccc(F)cc1` gave an IC50 (A549) of 5.51 µM.
In the case of `C/C1=C\[C@@H](OC(=O)C2CC2)[C@H]2[C@H](CC3=C[C@H](C1)OC3=O)OC(=O)[C@@H]2CSc1ccc(SC[C@H]2C(=O)O[C@H]3CC4=C[C@H](C/C(C)=C/[C@@H](OC(=O)C5CC5)[C@@H]32)OC4=O)cc1`, the IC50 (A549) is reported as 1.15 µM and the IC50 (NCI-H460) is reported as over 25 µM.
`C/C1=C\[C@@H](OC(=O)SCC(C)C)[C@H]2[C@H](CC3=C[C@H](C1)OC3=O)OC(=O)[C@@H]2CSC(=S)N(C)C` gave an IC50 (A549) of 1.37 µM.
`C/C1=C\[C@@H](OC(=O)c2ccccc2)[C@H]2[C@H](CC3=C[C@H](C1)OC3=O)OC(=O)[C@@H]2CSc1ccc(F)cc1` was tested, and the IC50 (A549) was 7.18 µM and the IC50 (NCI-H460) was over 25 µM.
In the case of `C/C1=C\[C@@H](OC(=O)NC2CC2)[C@H]2[C@H](CC3=C[C@H](C1)OC3=O)OC(=O)[C@@H]2CSC(=S)N(C)C`, the IC50 (A549) is reported as 2.08 µM.
`C/C1=C\[C@@H](O)[C@H]2[C@H](CC3=C[C@H](C1)OC3=O)OC(=O)[C@@H]2CSCCCCCCSC[C@H]1C(=O)O[C@H]2CC3=C[C@H](C/C(C)=C/[C@@H](O)[C@@H]21)OC3=O` was tested, and the IC50 (A549) was 21.9 µM and the IC50 (NCI-H460) was over 25 µM.
With `C/C1=C\[C@@H](OC(=O)/C=C/c2ccccc2)[C@H]2[C@H](CC3=C[C@H](C1)OC3=O)OC(=O)[C@@H]2CSCCCCCCSC[C@H]1C(=O)O[C@H]2CC3=C[C@H](C/C(C)=C/[C@@H](OC(=O)/C=C/c4ccccc4)[C@@H]21)OC3=O` the IC50 (A549) was over 25 µM and the IC50 (NCI-H460) was over 25 µM.
`C/C1=C\[C@@H](OC(=O)/C=C/c2ccccc2)[C@H]2[C@H](CC3=C[C@H](C1)OC3=O)OC(=O)[C@@H]2CSC1CCCCC1` was tested, and the IC50 (A549) was over 25 µM and the IC50 (NCI-H460) was over 25 µM.
Work on `C/C1=C\[C@@H](OC(=O)OCc2cccs2)[C@H]2[C@H](CC3=C[C@H](C1)OC3=O)OC(=O)[C@@H]2CSc1ccc(F)cc1` yielded an IC50 (A549) of 22.6 µM.
In the case of `C/C1=C\[C@@H](O)[C@H]2[C@H](CC3=C[C@H](C1)OC3=O)OC(=O)[C@@H]2CSc1ccc(Br)cc1`, the IC50 (A549) is reported as 15.2 µM and the IC50 (NCI-H460) is reported as over 25 µM.
`C#CCNC(=O)O[C@@H]1/C=C(\C)C[C@H]2C=C(C[C@@H]3OC(=O)[C@H](CSC(=S)N(C)C)[C@H]31)C(=O)O2` showed an IC50 (A549) of 1.76 µM.
In the case of `C/C1=C\[C@@H](OC(=O)/C=C/c2ccccc2)[C@H]2[C@H](CC3=C[C@H](C1)OC3=O)OC(=O)[C@@H]2CSc1cccc(Br)c1`, the IC50 (A549) is reported as 8.61 µM and the IC50 (NCI-H460) is reported as over 25 µM.
Compound `COc1ccc(SC[C@H]2C(=O)O[C@H]3CC4=C[C@H](C/C(C)=C/[C@@H](OC(=O)c5ccccc5)[C@@H]32)OC4=O)cc1` has an IC50 (A549) of 9.67 µM and an IC50 (NCI-H460) of over 25 µM.
Work on `C/C1=C\[C@@H](OC(=O)/C=C/c2ccccc2)[C@H]2[C@H](CC3=C[C@H](C1)OC3=O)OC(=O)[C@@H]2CSCC(C)C` yielded an IC50 (A549) of over 25 µM and an IC50 (NCI-H460) of over 25 µM.
With `C/C1=C\[C@@H](OC(=O)OCc2ccc(F)cc2)[C@H]2[C@H](CC3=C[C@H](C1)OC3=O)OC(=O)[C@@H]2CSc1ccc(F)cc1` the IC50 (A549) was 7.29 µM.
`C/C1=C\[C@@H](O)[C@H]2[C@H](CC3=C[C@H](C1)OC3=O)OC(=O)[C@@H]2CSc1cccc(F)c1` showed an IC50 (A549) of over 25 µM and an IC50 (NCI-H460) of over 25 µM.
`C/C1=C\[C@@H](OC(=O)C2CC2)[C@H]2[C@H](CC3=C[C@H](C1)OC3=O)OC(=O)[C@@H]2CSc1ccc(Cl)cc1` gave an IC50 (A549) of 6.03 µM and an IC50 (NCI-H460) of over 25 µM.
`C/C1=C\[C@@H](OC(=O)N2CCCC2)[C@H]2[C@H](CC3=C[C@H](C1)OC3=O)OC(=O)[C@@H]2CSc1ccc(F)cc1` gave an IC50 (A549) of 7.51 µM.
`C/C1=C\[C@@H](OC(=O)OC2CC2)[C@H]2[C@H](CC3=C[C@H](C1)OC3=O)OC(=O)[C@@H]2CSC(=S)N(C)C` gave an IC50 (A549) of 1.29 µM.
With `C/C1=C\[C@@H](O)[C@H]2[C@H](CC3=C[C@H](C1)OC3=O)OC(=O)[C@@H]2CSc1ccc(Cl)cc1` the IC50 (A549) was over 25 µM and the IC50 (NCI-H460) was over 25 µM.
`C/C1=C\[C@@H](OC(=O)C2CC2)[C@H]2[C@H](CC3=C[C@H](C1)OC3=O)OC(=O)[C@@H]2CSc1cccc(F)c1` showed an IC50 (A549) of 5.4 µM and an IC50 (NCI-H460) of 13.2 µM.
In the case of `C/C1=C\[C@@H](OC(=O)C2CC2)[C@H]2[C@H](CC3=C[C@H](C1)OC3=O)OC(=O)[C@@H]2CSC1CCCCC1`, the IC50 (A549) is reported as over 25 µM and the IC50 (NCI-H460) is reported as over 25 µM.
`C/C1=C\[C@@H](OC(=O)NCc2cccnc2)[C@H]2[C@H](CC3=C[C@H](C1)OC3=O)OC(=O)[C@@H]2CSc1ccc(F)cc1` showed an IC50 (A549) of 19.3 µM.
Compound `C/C1=C\[C@@H](OC(=O)c2ccccc2)[C@H]2[C@H](CC3=C[C@H](C1)OC3=O)OC(=O)[C@@H]2CSCCCCCCCCSC[C@H]1C(=O)O[C@H]2CC3=C[C@H](C/C(C)=C/[C@@H](OC(=O)c4ccccc4)[C@@H]21)OC3=O` has an IC50 (A549) of over 25 µM and an IC50 (NCI-H460) of over 25 µM.
`C/C1=C\[C@@H](OC(=O)c2ccccc2)[C@H]2[C@H](CC3=C[C@H](C1)OC3=O)OC(=O)[C@@H]2CSCCCCCCSC[C@H]1C(=O)O[C@H]2CC3=C[C@H](C/C(C)=C/[C@@H](OC(=O)c4ccccc4)[C@@H]21)OC3=O` gave an IC50 (A549) of over 25 µM and an IC50 (NCI-H460) of over 25 µM.
For `C/C1=C\[C@@H](OC(=O)SC2CCCCC2)[C@H]2[C@H](CC3=C[C@H](C1)OC3=O)OC(=O)[C@@H]2CSC(=S)N(C)C`, the IC50 (A549) was 2.01 µM.
For `CCCCCSC(=O)O[C@@H]1/C=C(\C)C[C@H]2C=C(C[C@@H]3OC(=O)[C@H](CSc4ccc(F)cc4)[C@H]31)C(=O)O2`, the IC50 (A549) was 10.7 µM.
`C/C1=C\[C@@H](OC(=O)SC2CCCCC2)[C@H]2[C@H](CC3=C[C@H](C1)OC3=O)OC(=O)[C@@H]2CSc1ccc(F)cc1` showed an IC50 (A549) of 3.94 µM.
`C/C1=C\[C@@H](OC(=O)NC2CC2)[C@H]2[C@H](CC3=C[C@H](C1)OC3=O)OC(=O)[C@@H]2CSc1ccc(F)cc1` gave an IC50 (A549) of 15.9 µM.
Work on `C/C1=C\[C@@H](OC(=O)NCc2cccs2)[C@H]2[C@H](CC3=C[C@H](C1)OC3=O)OC(=O)[C@@H]2CSC(=S)N(C)C` yielded an IC50 (A549) of 2.8 µM.
Compound `CCCNC(=O)O[C@@H]1/C=C(\C)C[C@H]2C=C(C[C@@H]3OC(=O)[C@H](CSc4ccc(F)cc4)[C@H]31)C(=O)O2` has an IC50 (A549) of 10.5 µM.
